Read-outs that look alike come from different tables or passages of the source. Bounds are passed on as bounds.

Broadly, the IC50 is the concentration at which inhibition is half-maximal.

In this test the target is T1, Axl (Homo sapiens, UniProt P30530).
T1 construct: endogenous in cells; host or cells: HeLa cells
T1 sequence (P30530 26-894): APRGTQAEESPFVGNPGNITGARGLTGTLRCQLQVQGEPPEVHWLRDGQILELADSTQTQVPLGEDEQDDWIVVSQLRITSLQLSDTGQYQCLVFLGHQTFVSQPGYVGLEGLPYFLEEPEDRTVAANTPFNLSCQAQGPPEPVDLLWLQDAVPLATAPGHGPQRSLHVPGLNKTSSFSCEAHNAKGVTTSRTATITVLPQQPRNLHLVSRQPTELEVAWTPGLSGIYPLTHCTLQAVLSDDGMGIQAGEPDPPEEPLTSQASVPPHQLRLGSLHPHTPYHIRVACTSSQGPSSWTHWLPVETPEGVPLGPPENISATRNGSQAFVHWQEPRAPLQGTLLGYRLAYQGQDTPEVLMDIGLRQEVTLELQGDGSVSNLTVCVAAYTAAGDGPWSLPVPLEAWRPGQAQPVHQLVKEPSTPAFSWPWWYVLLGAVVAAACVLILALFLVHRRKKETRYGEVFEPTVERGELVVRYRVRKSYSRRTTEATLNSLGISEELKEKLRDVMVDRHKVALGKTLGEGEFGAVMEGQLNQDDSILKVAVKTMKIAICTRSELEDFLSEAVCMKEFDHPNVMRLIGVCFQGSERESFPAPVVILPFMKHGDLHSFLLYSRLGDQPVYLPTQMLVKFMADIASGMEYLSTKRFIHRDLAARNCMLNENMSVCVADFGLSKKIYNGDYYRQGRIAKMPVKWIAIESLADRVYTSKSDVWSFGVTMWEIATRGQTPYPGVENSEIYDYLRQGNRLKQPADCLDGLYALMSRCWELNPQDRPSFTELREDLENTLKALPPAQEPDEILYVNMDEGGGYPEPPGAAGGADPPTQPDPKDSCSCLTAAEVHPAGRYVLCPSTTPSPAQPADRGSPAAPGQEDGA
In words: Phospho-Akt In-Cell Western Assay (inhibition of Axl activity after Axl-antibody cross-linking). Format: cell-based. Summed up:
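Phospho-Akt was detected in formaldehyde-fixed cells by in-cell immunostaining with HRP chemiluminescence. Before fixation, HeLa cells kept 24 h in low-serum medium containing 500 ng/mL Axl/Fc received compound for 1 h at 37 °C, followed by 5-min Axl activation through antibody clustering.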

[1] abbreviates: Hela cells, phospho-Akt chemiluminescence normalized to relative cell number, compounds of formula (Ia), Table 1, read-out: IC50.
Where [2] appears, read: Hela cells, phospho-Akt chemiluminescence normalized to relative cell number, compounds of formula (Ib), Table 2, read-out: IC50.
[3] abbreviates: inhibition of Axl activity, Table 1, compounds of formula (Ia), read-out: IC50.

Consider `CN1CCC(N2CCN(c3ccc(Nc4nc(N)n(-c5cc6c(nn5)-c5ccccc5CCC6)n4)cc3F)CC2)CC1` [Compound 109, 1-(6,7-dihydro-5H-benzo[6,7]cyclohepta[1,2-c]pyridazin-3-yl)-N^3-(3-fluoro-4-(4-N-methylpiperidin-4-ylpiperazinyl)phenyl)-1H-1,2,4-triazole-3,5-diamine], for which, under setting [1], the IC50 was under 1000 nM.
Regarding `Nc1nc(Nc2ccc(N3CCN(C4CCCC4)CC3)c(F)c2)nn1-c1cc2c(nn1)-c1ccccc1CCC2` [Compound 107, 1-(6,7-dihydro-5H-benzo[6,7]cyclohepta[1,2-c]pyridazin-3-yl)-N^3-(3-fluoro-4-(4-cyclopentylpiperazinyl)-phenyl)-1H-1,2,4-triazole-3,5-diamine], the IC50 under setting [1] is under 1000 nM.
On the same count and under the same terms, with `CN1CCC(C2CCN(c3ccc(Nc4nc(N)n(-c5cc6c(nn5)-c5ccccc5CCC6)n4)cc3F)CC2)CC1` [Compound 70, 1-(6,7-dihydro-5H-benzo[6,7]cyclohepta[1,2-c]pyridazin-3-yl)-N^3-(3-fluoro-4-(4-N-methylpiperidin-4-yl-piperidin-1-yl)phenyl)-1H-1,2,4-triazole-3,5-diamine] the figure was under 1000 nM.
Same read-out and setting: in the case of `CN1CCC(c2ccc(Nc3nc(N)n(-c4cc5c(nn4)-c4ccccc4CCC5)n3)cc2)CC1` [Compound 99, 1-(6,7-dihydro-5H-benzo[6,7]cyclohepta[1,2-c]pyridazin-3-yl)-N^3-(4-(methylpiperidin-4-yl)phenyl)-1H-1,2,4-triazole-3,5-diamine] it was under 1000 nM.
On to `Cc1cc(Nc2nc(N)nn2-c2cc3c(nn2)-c2ccccc2CCC3)cnc1N1CCC(N2CCCC2)CC1` [Compound 173, 1-(6,7-dihydro-5H-benzo[6,7]cyclohepta[1,2-c]pyridazin-3-yl)-N^5-(6-(4-(pyrrolidin-1-yl)piperidin-1-yl)-5-methylpyridin-3-yl)-1H-1,2,4-triazole-3,5-diamine], for which the IC50 under setting [2] lay in the range of 1000 to 10000 nM.
Take `CN(C)C1CCN(CC=Cc2ccc(Nc3nc(N)n(-c4cc5c(nn4)-c4ccccc4CCC5)n3)cc2)C1` (stereo not shown) [Compound 200, 1-(6,7-dihydro-5H-benzo[6,7]cyclohepta[1,2-c]pyridazin-3-yl)-N^3-(4-(3-dimethylaminopyrrolidin-1-ylprop-1-enyl)phenyl)-1H-1,2,4-triazole-3,5-diamine]: the 50% inhibitory concentration (IC50) under setting [3] is under 1000 nM.
As to `Nc1nc(Nc2cnc3c(c2)CCN(C2CCCC2)CC3)nn1-c1cc2c(nn1)-c1ccccc1CCC2` [Compound 26, 1-(6,7-dihydro-5H-benzo[6,7]cyclohepta[1,2-c]pyridazin-3-yl)-N^3-(7-cyclopentyl-6,7,8,9-tetrahydro-5H-pyrido[3,2-d]azepin-3-yl)-1H-1,2,4-triazole-3,5-diamine], the IC50 under setting [1] lay in the range of 1000 to 10000 nM.
On to `CN1CCN(C2CCN(c3ccc(Nc4nc(N)n(-c5cc6c(nn5)-c5ccc(Cl)cc5CCC6)n4)cc3F)CC2)CC1` [Compound 144, 1-(6,7-dihydro-9-chloro-5H-benzo[6,7]cyclohepta[1,2-c]pyridazin-3-yl)-N^3-(3-fluoro-4-(4-(N-methylpiperazin-1-yl)piperidin-1-yl)phenyl)-1H-1,2,4-triazole-3,5-diamine], for which the 50% inhibitory concentration (IC50) under setting [3] fell in the range of 1000 to 10000 nM.
Same read-out and setting: in the case of `Nc1nc(Nc2cnc3c(c2)CC[C@H](N2CCCC2)CC3)nn1-c1cc2c(nn1)-c1ccccc1CCC2` [Compound 191, 1-(6,7-dihydro-5H-benzo[6,7]cyclohepta[1,2-c]pyridazin-3-yl)-N^3-((S)-7-(pyrrolidin-1-yl)-6,7,8,9-tetrahydro-5H-cyclohepta[b]pyridine-3-yl)-1H-1,2,4-triazole-3,5-diamine] it was under 1000 nM.
`Nc1nc(Nc2ccc(N3CCC(N4CCCC4)CC3)c(C(F)(F)F)c2)nn1-c1cc2c(nn1)-c1ccccc1CCC2` [Compound 63, 1-(6,7-dihydro-5H-benzo[6,7]cyclohepta[1,2-c]pyridazin-3-yl)-N^3-(3-trifluoromethyl-4-(4-pyrrolidin-1-yl-piperidin-1-yl)phenyl)-1H-1,2,4-triazole-3,5-diamine]: the IC50 under setting [1] was in the range of 1000 to 10000 nM.
For `CCN(CC)CC1CCCN1c1ccc(Nc2nc(N)n(-c3cc4c(nn3)-c3ccccc3CCC4)n2)cn1` (stereo not shown) [Compound 130, 1-(6,7-dihydro-5H-benzo[6,7]cyclohepta[1,2-c]pyridazin-3-yl)-N^3-(6-(2-diethylaminomethyl)pyrrolidin-1-ylpyridin-3-yl)-1H-1,2,4-triazole-3,5-diamine], the IC50 under setting [3] lay in the range of 1000 to 10000 nM.
Regarding `Nc1nc(Nc2ccc(CN3CCN(C4CCCC4)CC3)cc2)n(-c2cc3c(nn2)-c2ccccc2CCC3)n1` [Compound 166, 1-(6,7-dihydro-5H-benzo[6,7]cyclohepta[1,2-c]pyridazin-3-yl)-N^5-(4-((4-cyclopentylpiperazinyl)methyl)phenyl)-1H-1,2,4-triazole-3,5-diamine], under setting [2], the concentration for half-maximal inhibition (IC50) fell in the range of 1000 to 10000 nM.
For `CC1CN(C2CCCC2)CCN1c1ccc(Nc2nc(N)n(-c3cc4c(nn3)-c3ccccc3CCC4)n2)cc1` (stereo not shown) [Compound 16, 1-(6,7-dihydro-5H-benzo[6,7]cyclohepta[1,2-c]pyridazin-3-yl)-N^3-(4-(4-cyclopentyl-2-methylpiperazin-1-yl)phenyl)-1H-1,2,4-triazole-3,5-diamine], the IC50 under setting [1] was under 1000 nM.
As to `Nc1nc(Nc2ccc(N3CCN(C4CCCCC4)CC3)c(F)c2)nn1-c1ncc2c(n1)-c1ccccc1CCC2` [Compound 45, 1-(6,7-dihydro-5H-benzo[6,7]cyclohepta[1,2-d]pyrimidin-2-yl)-N^3-(3-fluoro-4-(4-cyclohexylpiperazinyl)phenyl)-1H-1,2,4-triazole-3,5-diamine], the IC50 under setting [1] is under 1000 nM.
Still for that read-out and setting: in the case of `CN1CCc2cc(-n3nc(Nc4ccc(OCCN5CCCC5)c(F)c4)nc3N)nnc2-c2ccccc21` [Compound 42, 1-(7-methyl-6,7-dihydro-5H-benzo[2,3]azepino[4,5-c]pyridazin-3-yl)-N^3-(3-fluoro-4-(2-(pyrrolidin-1-yl)ethoxy)phenyl)-1H-1,2,4-triazole-3,5-diamine] it was under 1000 nM.
Consider `Nc1nc(Nc2ccc(N3CCC(N4CCCC4)CC3)cc2)n(-c2cc3c(nn2)-c2ccccc2SCC3)n1` [Compound 172, 1-(6,7-dihydro-5H-benzo[2,3]thiepino[4,5-c]pyridazin-3-yl)-N^5-(4-(4-pyrrolidin-1-ylpiperidinyl)phenyl)-1H-1,2,4-triazole-3,5-diamine], for which the half-maximal inhibitory concentration (IC50) under setting [2] was over 20000 nM.
`Cc1cc(Nc2nc(N)n(-c3cc4c(nn3)-c3ccccc3CCC4)n2)ccc1N1CCC(N2CCN(C)CC2)CC1` [Compound 114, 1-(6,7-dihydro-5H-benzo[6,7]cyclohepta[1,2-c]pyridazin-3-yl)-N^3-(3-methyl-4-(4-(N-methylpiperazin-4-yl)piperidin-1-yl)phenyl)-1H-1,2,4-triazole-3,5-diamine]: under setting [1], the IC50 was under 1000 nM.
`Nc1nc(Nc2ccc(N3C4CCC3CC(N3CCCC3)C4)c(F)c2)nn1-c1cc2c(nn1)-c1ccccc1CCC2` (stereo not shown) [Compound 76, 1-(6,7-dihydro-5H-benzo[6,7]cyclohepta[1,2-c]pyridazin-3-yl)-N^3-(3-fluoro-4-(3-(pyrrolidin-1-yl)-8-azabicyclo[3.2.1]oct-8-yl)phenyl)-1H-1,2,4-triazole-3,5-diamine] returned a half-inhibitory concentration (IC50) of under 1000 nM.
Take `Nc1nc(Nc2ccc(C3NCC4CNCC43)c(F)c2)nn1-c1cc2c(nn1)-c1ccccc1CCC2` (stereo not shown) [Compound 137, 1-(6,7-dihydro-5H-benzo[6,7]cyclohepta[1,2-c]pyridazin-3-yl)-N^3-(3-fluoro-4-(octahydropyrrolo[3,4-c]pyrrolyl)phenyl)-1H-1,2,4-triazole-3,5-diamine]: under setting [3], the concentration for half-maximal inhibition (IC50) was under 1000 nM.
On to `COc1cc2ncnc(-n3nc(Nc4cnc5c(c4)CC4(CCC5)OCCO4)nc3N)c2cc1OC` [Compound 239, 1-(6,7-dimethoxy-quinazolin-4-yl)-N^3-(5,7,8,9-tetrahydrospiro[cyclohepta[b]pyridine-6,2′-[1,3]dioxolane]-3-yl)-1H-1,2,4-triazole-3,5-diamine], for which the half-maximal inhibitory concentration (IC50) under setting [3] was 1000 to 10000 nM.
`CCN(CC)C1CCN(c2ccc(Nc3nc(N)n(-c4cc5c(nn4)-c4ccccc4CCC5)n3)cc2F)CC1` [Compound 36, 1-(6,7-dihydro-5H-benzo[6,7]cyclohepta[1,2-c]pyridazin-3-yl)-N^3-(3-fluoro-4-(4-(diethylamino)piperidin-1-yl)phenyl)-1H-1,2,4-triazole-3,5-diamine]: under setting [1], the IC50 is under 1000 nM.
For `Nc1nc(Nc2ccc(N3CC(N4CCCC4)C3)c(F)c2)nn1-c1cc2c(nn1)-c1ccccc1CCC2` [Compound 113, 1-(6,7-dihydro-5H-benzo[6,7]cyclohepta[1,2-c]pyridazin-3-yl)-N^3-(3-fluoro-4-(3-pyrrolidin-1-ylazetidinyl)phenyl)-1H-1,2,4-triazole-3,5-diamine], the half-maximal inhibitory concentration (IC50) under setting [1] was under 1000 nM.

The values above are taken from patent US7709482B2, “Polycyclic heteroaryl substituted triazoles useful as Axl inhibitors” (Rigel Pharmaceuticals, Inc., priority 2006, dated 2010).
